Test results as given in patent publication US10077268B2, “FXR agonists and methods for making and using” (Salk Institute for Biological Studies, priority 2014, dated 2018).
Like-named read-outs stand apart in the source and are kept apart here.

Experiments:
human TGR5 = target: T1, human TGR5 (Homo sapiens, UniProt Q8TDU6); assay: cAMP-response element luciferase reporter in HEK293 cells transfected with human TGR5; type: cell-based
T1 construct: expressed in transfected cells; host or cells: HEK293
T1 sequence (Q8TDU6 1-330): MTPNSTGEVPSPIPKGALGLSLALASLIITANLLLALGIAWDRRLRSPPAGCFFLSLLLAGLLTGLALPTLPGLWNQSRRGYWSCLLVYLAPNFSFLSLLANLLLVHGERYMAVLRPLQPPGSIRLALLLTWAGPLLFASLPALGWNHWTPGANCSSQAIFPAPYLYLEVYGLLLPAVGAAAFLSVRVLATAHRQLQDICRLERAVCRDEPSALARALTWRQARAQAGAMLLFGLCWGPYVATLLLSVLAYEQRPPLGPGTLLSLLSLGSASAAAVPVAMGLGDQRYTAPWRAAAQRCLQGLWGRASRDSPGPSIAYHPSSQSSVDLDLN
Method: HEK293 cells were transfected with expression vectors for cAMP-response element luciferase, β-galactosidase and human TGR5. 24 hours after transfection, cells were treated with fexaramine or INT-777 (a TGR5 agonist).

[1] = test system: FXR target gene expression; assay: FXR target gene expression (qPCR) after acute PO or IP treatment; type: in vivo, C57BL/6J mice; conditions: for FXR target genes (IBABP, OSTα, FGF15) in liver or kidney / FXR target genes (IBABP, OSTα, FGF15) in the intestine: PO
Method: FIGS. 1A-1C are a comparative expression chart and two bar charts, respectively, illustrating increased levels of FXR target gene expression in the intestine relative to expression in the liver and kidney. 8 week-old C57BL/6J mice were treated with vehicle or fexaramine (100 mg/kg) via oral (PO) or intraperitoneal (IP) injection for three days (FIGS. 1A-1B) or five days (FIG. 1C).
FXR target gene expression was analyzed by qPCR. Gene expression was normalized against a vehicle-treated group.
FIG. 1F is a bar chart illustrating that orally delivered fexaramine is intestinally-restricted. Mice received vehicle or Fexaramine (100 mg/kg) via per os (PO) or intraperitoneal (IP) injection for 5 days. Expression of the FXR target gene SHP after PO or IP injection in selected tissues is shown.
(§1) Upon exploration of the in vivo effects of fexaramine (Fex) administration, it was discovered that due to ineffectual absorption, oral (PO) and intraperitoneal (IP) drug delivery produced very different effects (FIGS. 1D and 1E).

[2] = LC/MS quantification of serum fexaramine after PO or IP; type: in vivo, mice
Method: FIG. 1D is a schematic diagram illustrating an experimental procedure used to evaluate fexaramine, where mice were treated with vehicle or fexaramine (100 mg/kg) via PO or IP injection, and LC/MS quantification of serum fexaramine was conducted five days later.
FIG. 1E is a bar chart illustrating serum fexaramine concentrations after administration as described in FIG. 1D. Data represent mean values±STD. Statistical analysis was performed with the Student's t test (*p<0.05, **p<0.01).
as §1

DIO mice = assay: Hyperinsulinemic-euglycemic clamp in DIO mice; type: in vivo
Method: FIGS. 15I-15K are a line graph and two bar graphs showing the effect of fexaramine treatment on body weight, insulin-stimulated GDR, and fasting insulin levels. Mice were fed HFD for 14 weeks, and then administered daily oral injections of vehicle or fexaramine (100 mg/kg) for 3 weeks with HFD. The mice treated with fexaramine were initially heavier (by 2-3 grams). Three weeks after treatment, a clamp study was performed on the mice. Data represent the mean±STD. Statistical analysis was performed with the Student's t test (*p<0.05, **p<0.01).

With COC(=O)/C=C/c1cccc(N(Cc2ccc(-c3ccc(N(C)C)cc3)cc2)C(=O)C2CCCCC2)c1 [fexaramine] the “activation of TGR5” value (human TGR5) was “fails to activate TGR5”, the “activation of TGR5” value (human TGR5; listed as Fex) was “does not activate” and the “FXR target gene expression in the liver and kidney after IP injection” value ([1]; IP, 100 mg/kg, five days) was “increases FXR target gene expression in the liver and kidney”. The “induction of SHP in liver and kidney” value ([1]; PO versus IP, 100 mg/kg for five days) was “only seen in liver and kidney after IP treatment”, the “FXR target genes (IBABP, OSTα, FGF15) in liver or kidney” value ([1]; 100 mg/kg) was “not in the liver or kidney” and the “FXR target genes (IBABP, OSTα, FGF15) in the intestine” value ([1]; 100 mg/kg) was “substantially enhances FXR target gene expression in the intestine”. The “FXR target genes (IBABP, OSTα, FGF15) in liver or kidney” value ([1]; 100 mg/kg, listed as Fex) was “failed to affect the expression of these genes in liver or kidney”, the “FXR target genes (IBABP, OSTα, FGF15) in the intestine” value ([1]; 100 mg/kg, listed as Fex) was “induced multiple FXR target genes in the intestine” and the “induction of FXR target gene SHP throughout the intestine” value ([1]; acute PO and IP, 100 mg/kg for five days) was “robust induction”. For the same compound, the serum Fex level after PO compared to IP ([2]; acute PO vs IP, 100 mg/kg) was 10 % of IP levels, the “absorption after oral delivery” value ([2]; oral) was “poorly absorbed” and the “insulin-mediated suppression of HGP” value (DIO mice; compared to control DIO mice) was “marked increase”. The “basal HGP, GDR, IS-GDR, FFA suppression and fasting insulin levels” value (DIO mice; weight-matched cohorts) was “No differences”.
